The values below come from patent US20210198258A1, “INTEGRIN ANTAGONISTS” (Oxurion NV, priority 2018, published 2021).

In experiment [1] the test system is human umbilical vein endothelial cells (HUVECs). The experiment in a line: ORIS Cell Migration Assay. To be noted: HUVEC, fibronectin-coated plates, 24 h migration. Type of experiment: cell-based. As for the experimental part: Endothelial cell wound healing is mediated by endothelial cell migration and proliferation, both critical components of the angiogenesis process, and is routinely used as a surrogate model for in vitro angiogenic potential. The ORIS™ Cell Migration Assay was used with human umbilical vein endothelial cells (HUVECs).
HUVEC cells (SCCE-001, Cat no. 1000519, Merck Chemicals) were cultured in T175 flasks (Cat no 353112, falcon) in EndoGro Growth Medium (SCME-003, Merck Chemicals) and split when they reached 90-100% confluence.
For the assay, cells were used at passage 2 to 4 after thawing and at 80-90% confluency. At the beginning of the day, the fibronectin-coated Oris™ Cell Migration Assay Plates (Cat no #CMAFN.I01, AMS Biotechnology) were removed from refrigeration and placed at RT for 1 h. […]
Just prior to the end of the incubation, a 4 μg/mL calcein AM (Cat no 354217, Beckton Dickinson) solution was prepared in pre-warmed HBSS (Cat no 14025, Gibco). […] After incubation the fluorescence was read at 494 nm excitation and 517 nm emission wavelengths using the Flexstation and the SofiMax Pro 5.4.5 software (Molecular Devices). The fluorescence was read from the bottom of the plates with the lid on to keep them sterile. The masks were then removed and pictures were taken with the Axiovert fluorescence microscope (Zeiss) using reflected light, GFP and a 2.5× objective.

Experiment [2] relates to RPE-choroid sclera explants. Particulars: read-out: IC50 vessel outgrowth; murine choroid explants in fibrin gel, 3 to 4 days.
Excerpt: The assay is based on a murine microvascular angiogenesis explant model, which closely mimics in viva choroidal angiogenesis. […] The choroidal explant model or briefly EMCA model allows for rapid evaluation of new anti-angiogenic therapeutics, with the additional benefit of excluding the potential lack of exposure often encountered when testing small molecules in animal eyes. RPE-choroid sclera explants (hereinafter referred to as choroid explants) are embedded in a three-dimensional fibrinogen/fibrin gel. Addition of serum-containing medium induces extensive endothelial cell sprout outgrowth into the matrix after 3 to 4 days in culture.
All experiments were performed using 4 to 5-weeks old male C57BL/6J mice (Charles River Laboratories France), housed under standard laboratory conditions according to a normal day/night rhythm with ad libitum access to food and water. […]
After 3 to 4 days, bright field pictures were taken at 2.5× magnification with the Axio Vert.A1 inverted microscope (Zeiss) using ZEN lite 2012 microscope software (Zeiss). […] Further analysis was performed in Microsoft Excel, where the sprouting area of endothelial organotypic culture was quantified by subtracting the area of the tissue explant from the total area occupied by the sprouts.

Usually IC50 stands for the concentration at which inhibition is half-maximal. On to `CC(C)[C@H]1C(=O)N[C@@H](CCCN=C(N)N)C(=O)NCC(=O)N[C@@H](CC(=O)O)C(=O)N[C@H](Cc2ccccc2)C(=O)N1C` [Cilengitide], for which the IC50 in experiment [1] was 100 µM; in experiment [2], around 300 µM.
